Reference: US8148092B2, “System and method for performing G protein coupled receptor (GPCR) cell assays using waveguide-grating sensors” (Corning Incorporated, priority 2005, dated 2012)

Legend:
CHO cells = assay: optical LID (waveguide grating biosensor) mass redistribution response of adherent CHO cells after compound addition; format: cell-based, Chinese Hamster; conditions: for ligand-induced mass redistribution signal (total change in response): CHO cells, compound 10 μM, FIGS. 13, 15, 18
Text: Referring to FIG. 3, there is shown a flowchart illustrating the basic steps of a method 300 for monitoring in real time the mass redistribution due to an agonist-induced GPCR activation within living cells 108 using an optical LID biosensor 104 in accordance with the present invention. The method 300 includes the following steps: (a) provide an optical LID biosensor 104 (step 302); (b) place a certain number of living cells 108 in a medium which covers the optical LID biosensor 104 such that the living cells 108 attach onto the surface 110 of the optical LID biosensor 104 (step 304); (c) optionally apply a buffer solution at least once into the cell medium (step 306); (d) apply a solution containing a compound (agonist) into the cell medium (step 308); and (e) interrogate the optical LID biosensor 104 and monitor the time dependent optical response 201 of the living cells 108 cultured on the optical LID biosensor 104 (step 310).
It is known that CHO cells 108 endogenously express beta adrenergic receptors, alpha2-adrenergic receptors, P2Y receptors, as well as beta-arrestin and GRKs. It is also known that muscarinic receptors are endogenously expressed at very low level in the CHO cells 108. In this experiment, approximately ˜5×10^4 CHO cells 108 were placed within each well of a microplate that contained an array of optical LID biosensors 104. The CHO cells 108 were then cultured in 150 μl serum medium for 24 hours to ensure that the CHO cells 108 became adherent to the substrate surface 110.
Since muscarinic receptors are endogenously expressed at very low level in CHO cells 108; oxotremorine M, agonist for muscarinic receptors, served as a control. Each of these agonists was directly applied to a different one of the wells which contained the serum medium. The optical responses were then collected by the optical LID system 100.

[1] = tested on: CHO cells with stably overexpressed rat muscarinic receptor subtype 1 (M1 CHO); assay: optical LID mass redistribution response of CHO cells with stably overexpressed rat muscarinic receptor subtype 1 after compound addition; format: cell-based, Chinese Hamster; conditions: compound 10 μM, compared with CHO cells, FIGS. 14, 15, 18
Procedure: FIG. 14 a time-dependent LID response of engineered Chinese Hamster Ovary (CHO) cells with over-expressed rat muscarnic receptor subtype 1 (thus this cell line is termed as M1 CHO) before and after compound addition. The compound concentration used is 10 μM for all compounds.

Structure (SMILES)	ligand-induced mass redistribution signal (total change in response) (CHO cells)	agonist-induced time-dependent optical LID response (CHO cells; CHO cells in serum medium, ATP 100 μM, epinephrine 100 μM, clonidine 10 μM, oxotremorine M 10 μM, FIG. 10)	ligand-induced mass redistribution signal (total change in response) [1]
Clc1cccc(Cl)c1N=C1NCCN1 [clonidine]	induced mass redistribution signals	–	–
C[N+](C)(C)CC#CCN1CCCC1=O [oxotremorine M]	–	almost no cell response	significantly larger responses in M1-CHO cells
Cc1scc2c1N(C(=O)CN1CCN(C)CC1)c1ccccc1NC2=O [telenzepine]	–	–	not its antagonist (telenzepine) results in significantly larger responses
CCNC(=O)[C@H]1O[C@@H](n2cnc3c(N)ncnc32)[C@H](O)[C@@H]1O [NECA]	results in mass redistribution signals	–	results in mass redistribution signals
